Data taken from patent US5698538A, “Boronic acid and ester inhibitors of thrombin” (The DuPont Merck Pharmaceutical Company, priority 1996, dated 1997).
Structures can show the parent of a compound that is named as a salt. Where two headings read alike, the source gives them in different places.

What was measured:
Assay type in all cases: biochemical
human thrombin = biological target: T1, human thrombin (Homo sapiens, UniProt P00734); assay: Inhibition of human thrombin (chromogenic substrate S2238), inhibitory constant Ki; details: 0.2-0.5 nM human thrombin, S2238, pH 7.5, 30 minutes; read-out: Ki values for inhibition of Serine Proteases: Thrombin
T1 construct: purchased Enzyme Research Laboratories, South Bend, Ind
Method: (§1) The effectiveness of compounds of the present invention as inhibitors of blood coagulation proteases was determined using purified human proteases and synthetic substrates following procedures similar to those described in Kettner et al. (1990).
(§2) For these assays, the rate of enzymatic (thrombin, Factor Xa, and Factor VIIa) hydrolysis of chromogenic substrates (S2238 (H-D-Phe-Pip-Arg-pNA), S2222, and S2288, respectively; Kabi Pharmacia, Franklin, Ohio.) was measured both in the absence and presence of compounds of the present invention. […] A decrease in the rate of absorbance change at 405 nm in the presence of inhibitor is indicative of enzyme inhibition. The results of this assay are expressed as inhibitory constant, Ki.
(§3) Thrombin and Xa determinations were made in 0.10M sodium phosphate buffer, pH 7.5, containing 0.20M NaCl, and 0.5% PEG 8000. VIIa determinations were made in 0.05M tris buffer, pH 7.6, containing 0.10M NaCl, 4 mM CaCl2, and 0.1% bovine serum albumin. The Michaelis constant, Km, for substrate hydrolysis was determined at 5° C. using the method of Lineweaver and Burk.
(§4) Values of Ki were determined by allowing 0.2-0.5 nM human thrombin or human factor Xa (Enzyme Research Laboratories, South Bend, Ind.), or 50 nM human factor VIIa (BiosPacific, Emeryville, Calif.) react with the substrate (0.20 mM-1 mM) in the presence of inhibitor. Reactions were allowed to go for 30 minutes and the velocities (rate of absorbance change vs time) were measured in the time frame of 25-30 minutes. The following relationship was used to calculate Ki values. [formula] where: vo is the velocity of the control in the absence of inhibitor;
(§5) vs is the velocity in the presence of inhibitor;
(§6) I is the concentration of inhibitor;
(§7) Ki is the dissociation constant of the enzyme: inhibitor complex;
(§8) S is the concentration of substrate;
(§9) Km is the Michaelis constant.

human factor Xa = biological target: T2, human factor Xa (Homo sapiens, UniProt P00742); assay: Inhibition of human factor Xa (chromogenic substrate S2222), inhibitory constant Ki; details: S2222, pH 7.5, 30 minutes, read-out: Ki values for inhibition of Serine Proteases: Factor Xa
T2 construct: purchased Enzyme Research Laboratories, South Bend, Ind
Method: as §1, §2, §3, §4, §5, §6, §7, §8, §9

human factor VIIa = biological target: T3, human factor VIIa (Homo sapiens, UniProt P08709); assay: Inhibition of human factor VIIa (chromogenic substrate S2288), inhibitory constant Ki
T3 construct: Factor VIIa in the extrinsic pathway; purchased BiosPacific, Emeryville, Calif
T3 sequence (P08709 213-466 limits assumed): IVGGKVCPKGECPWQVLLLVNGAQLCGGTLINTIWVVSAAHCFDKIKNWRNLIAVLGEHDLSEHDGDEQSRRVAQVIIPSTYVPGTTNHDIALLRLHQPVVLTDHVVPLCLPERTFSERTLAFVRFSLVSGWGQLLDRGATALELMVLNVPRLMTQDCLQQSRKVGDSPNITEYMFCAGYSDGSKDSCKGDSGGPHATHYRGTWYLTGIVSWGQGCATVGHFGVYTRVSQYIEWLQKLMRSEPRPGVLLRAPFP
T3 sequence (P08709 61-212 partner limits assumed): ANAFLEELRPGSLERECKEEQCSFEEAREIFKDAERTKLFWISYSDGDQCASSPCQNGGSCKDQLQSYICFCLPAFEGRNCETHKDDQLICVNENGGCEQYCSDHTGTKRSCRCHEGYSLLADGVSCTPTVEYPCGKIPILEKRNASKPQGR
Method: as §1, §2, §3, §4, §5, §6, §7, §8, §9

[1] = 50 nM human factor VIIa, S2288, pH 7.6, 4 mM CaCl2, 30 minutes, read-out: Ki values for inhibition of Serine Proteases: Factor VIIa

T2 sequence (P00742 235-488 limits assumed): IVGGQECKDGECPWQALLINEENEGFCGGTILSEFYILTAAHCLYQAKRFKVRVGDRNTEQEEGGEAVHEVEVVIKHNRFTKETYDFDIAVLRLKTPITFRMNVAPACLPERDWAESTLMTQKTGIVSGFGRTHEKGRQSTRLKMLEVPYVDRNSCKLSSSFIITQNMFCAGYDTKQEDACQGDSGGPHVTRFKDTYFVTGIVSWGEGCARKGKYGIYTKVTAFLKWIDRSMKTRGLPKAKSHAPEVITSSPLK
T2 sequence (P00742 41-179 partner limits assumed): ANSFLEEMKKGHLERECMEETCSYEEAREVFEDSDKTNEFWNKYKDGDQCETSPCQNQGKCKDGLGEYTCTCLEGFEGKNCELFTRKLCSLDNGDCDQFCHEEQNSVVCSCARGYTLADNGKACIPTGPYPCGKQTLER

| Compound | Ki (human thrombin) [nM] | Ki (human factor Xa) [nM] | Ki (human factor VIIa; [1]) [nM] | Ki (human factor VIIa) [nM] |
| --- | --- | --- | --- | --- |
| NCCCC[C@H](NC(=O)Cn1ncnc1CCc1ccccc1)B(O)O [Example 1521] | < 500 |  |  |  |
| CC(C)(C)OC(=O)Nc1cccc(-c2ccc(C(=O)N[C@@H](CCCNC(=N)N)B3OC4CC5CC(C5(C)C)C4(C)O3)s2)c1 (single isomer, unassigned) [Example 5426] | < 500 | < 500 |  |  |
| CC1(C)C2CC3OB([C@H](CCCCN)NC(=O)Cn4nc(Cc5ccccc5)nc4CO)OC3(C)C1C2 (single isomer, unassigned) [Example 2439] | < 500 | 500 to 50000 | 500 to 50000 |  |
| CC(C)(C)NS(=O)(=O)c1ccccc1-c1ccc(C(=O)N[C@@H](CCCNC(=N)N)B(O)O)cc1 [Example 263] | < 500 | < 500 | < 500 |  |
| CCCc1nc(Cc2ccccc2)nn1CC(=O)N[C@@H](CCCCN)B1OC2CC3CC(C3(C)C)C2(C)O1 (single isomer, unassigned) [Example 2414] | < 500 | 500 to 50000 | 500 to 50000 |  |
| CC1(C)C2CC3OB([C@H](CCCCN)NC(=O)Cn4nc(Cc5ccccc5)nc4-c4ccccc4)OC3(C)C1C2 (some centres unmarked) [Example 2446] | < 500 | 500 to 50000 | 500 to 50000 |  |
| Cc1cc(-c2cccc(NC(=O)OC(C)(C)C)c2)ccc1C(=O)N[C@@H](CCCNC(=N)N)B1O[C@@H]2C[C@@H]3C[C@@H](C3(C)C)[C@]2(C)O1 [Example 283] | < 500 | < 500 | 500 to 50000 |  |
| NCCCC[C@H](NC(=O)c1ccc(-c2ccccc2)nc1)B(O)O [Example 474] | < 50000 | 500 to 50000 | 500 to 50000 |  |
| CC1(C)[C@@H]2C[C@H]3OB([C@H](CCCNC(=N)N)NC(=O)c4ccc(-c5ccccc5)cc4)O[C@@]3(C)[C@H]1C2 [Example 1, N^1-(4-Phenylbenzoyl)boroarginine (+)-Pinanediol, Bisulfite] | < 500 | 500 to 50000 |  |  |
| NCCCC[C@H](NC(=O)Cn1cnc(Cc2ccccc2)n1)B(O)O [Example 2499] | < 500 | 500 to 50000 | 500 to 50000 |  |
| NCCCC[C@H](NC(=O)Cn1nc(Cc2ccccc2)nc1-c1ccccc1)B(O)O [Example 2533] | < 500 | 500 to 50000 | > 500000 |  |
| COC(=O)Cc1nc(Cc2ccccc2)nn1CC(=O)N[C@@H](CCCCN)B1OC2CC3CC(C3(C)C)C2(C)O1 (some centres unmarked) [Example 2443] | < 500 | 500 to 50000 | 500 to 50000 |  |
| CC1(C)[C@@H]2C[C@H]3OB([C@H](CCCCN)NC(=O)Cn4nc(-c5cccc([N+](=O)[O-])c5)nc4Cc4ccccc4)O[C@@]3(C)[C@H]1C2 [Example 923] | < 500 | 500 to 50000 |  | 500 to 50000 |
| CC1(C)[C@@H]2C[C@H]3OB([C@H](CCCNC(=N)N)NC(=O)c4cccc(-c5ccccc5)c4)O[C@@]3(C)[C@H]1C2 [Example 2] | < 500 | < 500 | < 500 |  |
| CC(C)(C)NS(=O)(=O)c1ccccc1-c1ccc(C(=O)N[C@@H](CCCNC(=N)N)B2O[C@@H]3C[C@@H]4C[C@@H](C4(C)C)[C@]3(C)O2)c([N+](=O)[O-])c1 [Example 288] | < 500 |  | < 500 |  |
| CC1(C)[C@@H]2C[C@H]3OB([C@H](CCCNC(=N)N)NC(=O)c4ccc(-c5ccccc5)c([N+](=O)[O-])c4)O[C@@]3(C)[C@H]1C2 [Example 298] | < 500 | < 500 | < 500 |  |
| CC1(C)C2CC3OB([C@H](CCCCN)NC(=O)Cn4nc(CCc5ccccc5)nc4COCc4ccccc4)OC3(C)C1C2 (single isomer, unassigned) [Example 2781] | < 500 | 500 to 50000 | 500 to 50000 |  |
| CC1(C)[C@@H]2C[C@H]3OB([C@H](CCCCN)NC(=O)Cn4nc(CC#N)nc4Cc4ccccc4)O[C@@]3(C)[C@H]1C2 [Example 898, R-N^1-(3-Cyanomethyl-5-phenylmethyl-1,2,4-triazol-1-yl)acetyl-borolysine, (+)-pinanediol ester, hydrochloride] | < 500 | 500 to 50000 |  | 500 to 50000 |
| CC1(C)C2CC3OB([C@H](CCCNC(=N)N)NC(=O)Cn4nc(Cc5ccccc5)nc4-c4ccccc4)OC3(C)C1C2 (single isomer, unassigned) [Example 2490] | < 500 | 500 to 50000 | < 500 |  |

| Compound | Ki (human thrombin) [nM] | Ki (human factor Xa) [nM] | Ki (human factor VIIa; [1]) [nM] | Ki (human factor VIIa) [nM] |
| --- | --- | --- | --- | --- |
| CC1(C)[C@@H]2C[C@H]3OB([C@H](CCCCN)NC(=O)Cn4nc(CC(=O)O)nc4Cc4ccccc4)O[C@@]3(C)[C@H]1C2 [Example 905] | < 50000 | 500 to 50000 | > 500000 |  |
| CC1(C)[C@@H]2C[C@H]3OB([C@H](CCCCN)NC(=O)Cn4nc(-c5cccc(N)c5)nc4Cc4ccccc4)O[C@@]3(C)[C@H]1C2 [Example 931] | < 500 | 500 to 50000 |  | 500 to 50000 |
| CC1(C)C2CC3OB([C@H](CCCCN)NC(=O)Cn4cnc(Cc5ccccc5)n4)OC3(C)C1C2 (single isomer, unassigned) [Example 2411] | < 500 |  |  |  |
| NCCCC[C@H](NC(=O)Cn1cnc(CCc2ccccc2)n1)B(O)O [Example 2837] | < 50000 |  |  |  |
| Cc1cc(-c2ccccc2)ccc1C(=O)N[C@@H](CCCNC(=N)N)B(O)O [Example 129] | < 500 | < 500 |  |  |
| COCCC[C@H](NC(=O)Cn1nc(CC#N)nc1Cc1ccccc1)B1OC2CC3CC(C3(C)C)C2(C)O1 (single isomer, unassigned) [Example 1352] | < 500 | 500 to 50000 |  |  |
| CC1(C)[C@@H]2C[C@H]3OB([C@H](CCCCN)NC(=O)Cn4nc(-c5ccccc5)nc4Cc4ccccc4)O[C@@]3(C)[C@H]1C2 [Example 920] | < 500 |  |  |  |
| CC1(C)C2CC3OB([C@H](CCCCN)NC(=O)Cn4cnc(CCc5ccccc5)n4)OC3(C)C1C2 (single isomer, unassigned) [Example 2752] | < 500 |  |  |  |
| CC1(C)C2CC3OB([C@H](CCCCN)NC(=O)Cn4nc(Cc5nn[nH]n5)nc4Cc4ccccc4)OC3(C)C1C2 (single isomer, unassigned) [Example 2067] | < 500 |  |  |  |
| CC(C)(C)OC(=O)Nc1cccc(-c2ccc(C(=O)N[C@@H](CCCNC(=N)N)B3OC4CC5CC(C5(C)C)C4(C)O3)o2)c1 (single isomer, unassigned) [Example 5529] | < 500 | < 500 |  |  |
| CC1(C)[C@@H]2C[C@H]3OB([C@H](CCCCN)NC(=O)c4ccc(-c5ccccc5)nc4)O[C@@]3(C)[C@H]1C2 [Example 4064] | < 50000 | 500 to 50000 |  |  |
| CC1(C)[C@@H]2C[C@H]3OB([C@H](CCCCN)NC(=O)Cn4ncnc4Cc4ccccc4)O[C@@]3(C)[C@H]1C2 [Example 887] | < 500 |  |  |  |
| NCCCC[C@H](NC(=O)Cn1ncnc1Cc1ccccc1)B(O)O [Example 977] | < 500 |  |  |  |
| NCCCC[C@H](NC(=O)c1ccc(-c2ccccc2)nc1)B(O)O [Example 4065] | < 50000 | 500 to 50000 |  |  |
| CC1(C)C2CC3OB([C@H](CCCCN)NC(=O)Cn4ncnc4CCc4ccccc4)OC3(C)C1C2 (single isomer, unassigned) [Example 1431] | < 500 |  |  |  |
| CC1(C)C2CC3OB([C@H](CCCCN)NC(=O)Cc4nc(Cc5ccccc5)n(Cc5ccccc5)n4)OC3(C)C1C2 (single isomer, unassigned) [Example 3349] | < 500 | 500 to 50000 |  |  |
| CC1(C)C2CC3OB([C@H](CCCCN)NC(=O)Cn4nc(CCc5ccccc5)nc4CCc4ccccc4)OC3(C)C1C2 (single isomer, unassigned) [Example 1467] | < 500 |  | 500 to 50000 |  |
| Cc1cc(-c2ccccc2)ccc1C(=O)N[C@@H](CCCNC(=N)N)B1O[C@@H]2C[C@@H]3C[C@@H](C3(C)C)[C@]2(C)O1 [Example 29] | < 500 |  |  |  |
| NCCCC[C@H](NC(=O)Cn1nc(CCc2ccccc2)nc1CCc1ccccc1)B(O)O [Example 1557] | < 500 |  | 500 to 50000 |  |
